Tests used:
[1] = target: T1, CFTR in F508del/F508del primary CF hBE cells (Homo sapiens, UniProt P13569, DEL508-508); assay: Ussing chamber electrophysiology assay of CFTR potentiation in F508del/F508del CF bronchial epithelial cells (27° C.); type: cell-based
T1 construct: Primary cystic fibrosis human bronchial epithelial (CF hBE) cells were expanded and cultured; endogenous in cells; host or cells: primary CF human bronchial epithelial cells, genotype F508del/F508del
Outline: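 Short-circuit current was recorded under zero-voltage clamp across primary CF bronchial epithelia cultured >30 days at air/liquid interface, bathed apically and basolaterally in HEPES-buffered saline. Sequential additions: amiloride (30 uM), forskolin (10 uM), compound at 4 increasing levels, CFTRinh-172 (20 uM). Responses normalised between DMSO (0%) and maximal positive-control potentiator (100%).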

[2] = target: T2, recombinant F508del V470 CFTR in Fischer rat thyroid (FRT) cells (Homo sapiens, UniProt P13569, DEL508-508); assay: FRT ion flux assay of F508del CFTR potentiation; type: cell-based; settings: FRT cells expressing F508del V470 CFTR, forskolin 20 uM, 27° C. pre-incubation
T2 construct: expressed in transfected cells
T2 sequence (P13569 with tags, fused parts or gaps DEL508-508): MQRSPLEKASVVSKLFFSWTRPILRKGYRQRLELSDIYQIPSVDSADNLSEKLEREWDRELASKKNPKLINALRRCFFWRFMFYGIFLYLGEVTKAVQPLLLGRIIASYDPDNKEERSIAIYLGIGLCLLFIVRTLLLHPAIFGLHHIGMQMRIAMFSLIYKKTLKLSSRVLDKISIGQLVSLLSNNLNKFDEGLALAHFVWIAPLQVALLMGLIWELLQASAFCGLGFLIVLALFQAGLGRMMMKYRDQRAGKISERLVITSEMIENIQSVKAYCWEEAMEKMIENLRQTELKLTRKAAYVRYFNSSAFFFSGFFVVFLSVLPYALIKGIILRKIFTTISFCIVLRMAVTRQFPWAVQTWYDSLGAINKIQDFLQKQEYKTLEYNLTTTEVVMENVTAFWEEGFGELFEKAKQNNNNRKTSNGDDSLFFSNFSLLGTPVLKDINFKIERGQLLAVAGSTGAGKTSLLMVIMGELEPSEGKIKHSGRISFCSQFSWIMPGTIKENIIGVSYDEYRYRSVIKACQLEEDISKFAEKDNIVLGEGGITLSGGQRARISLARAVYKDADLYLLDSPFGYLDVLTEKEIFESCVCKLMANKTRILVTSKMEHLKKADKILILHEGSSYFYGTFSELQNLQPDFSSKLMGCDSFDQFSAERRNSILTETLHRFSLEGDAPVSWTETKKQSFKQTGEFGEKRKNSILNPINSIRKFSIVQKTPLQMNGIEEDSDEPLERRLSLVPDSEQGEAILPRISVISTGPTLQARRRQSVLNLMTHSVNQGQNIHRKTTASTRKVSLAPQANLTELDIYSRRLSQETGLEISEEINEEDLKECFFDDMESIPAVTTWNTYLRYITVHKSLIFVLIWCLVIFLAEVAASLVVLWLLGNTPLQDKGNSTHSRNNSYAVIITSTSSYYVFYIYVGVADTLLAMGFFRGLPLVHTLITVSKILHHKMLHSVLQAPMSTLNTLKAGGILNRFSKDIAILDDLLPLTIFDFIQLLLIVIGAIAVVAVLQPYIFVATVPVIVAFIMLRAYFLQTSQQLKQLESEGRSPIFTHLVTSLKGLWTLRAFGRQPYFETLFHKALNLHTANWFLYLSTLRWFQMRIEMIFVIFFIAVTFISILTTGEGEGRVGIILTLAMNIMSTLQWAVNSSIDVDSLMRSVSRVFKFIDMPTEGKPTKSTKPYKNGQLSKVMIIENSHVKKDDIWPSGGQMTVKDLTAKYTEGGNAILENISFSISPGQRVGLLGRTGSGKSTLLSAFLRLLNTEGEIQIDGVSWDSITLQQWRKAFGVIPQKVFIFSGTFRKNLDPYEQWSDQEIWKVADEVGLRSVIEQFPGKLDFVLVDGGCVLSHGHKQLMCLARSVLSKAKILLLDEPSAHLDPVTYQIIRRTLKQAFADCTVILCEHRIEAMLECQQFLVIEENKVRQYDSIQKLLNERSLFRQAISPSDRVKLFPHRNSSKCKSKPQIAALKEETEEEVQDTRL
Outline: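 Potentiation read as YFP quench ~21 s after iodide buffer addition, as second/initial fluorescence ratio normalised between DMSO (0%) and reference potentiator (100%).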

T1 sequence (P13569 with tags, fused parts or gaps DEL508-508): as above

EC50 [1]	EC50 [2]	Structure (SMILES)
142 nM	54.6 nM	CC(c1cnc(-c2ccccc2F)[nH]1)n1cc(-c2cnc(N(C)C)nc2)c2c(N)ncnc21 (stereo not shown) [Example 67, 5-[2-(Dimethylamino)pyrimidin-5-yl]-7-{1-[2-(2-fluorophenyl)-1H-imidazol-5-yl]ethyl}-7H-pyrrolo[2,3-d]pyrimidin-4-amine]
238 nM	226 nM	COc1cccnc1-c1cn(Cc2cn(-c3ccccc3F)nn2)c2ncnc(N)c12 [Example 207, 7-{[1-(2-fluorophenyl)-1H-1,2,3-triazol-4-yl]methyl}-5-(3-methoxypyridin-2-yl)-7H-pyrrolo[2,3-d]pyrimidin-4-amine]
32 nM	195 nM	COc1ccc(-c2cn(C(C)c3cnc(-c4ccccc4F)[nH]3)c3ncnc(N)c23)c(F)c1 (stereo not shown) [Example 59, 5-(2-Fluoro-4-methoxyphenyl)-7-{1-[2-(2-fluorophenyl)-1H-imidazol-5-yl]ethyl}-7H-pyrrolo[2,3-d]pyrimidin-4-amine]
3.87 nM	11.7 nM	CCC(c1cn(-c2cc(F)ccc2F)nn1)n1cc(-c2cc(F)cnc2OC)c2c(N)ncnc21 (single isomer, unassigned; enantiomer 1) [Example 171, 7-{1-[1-(2,5-Difluorophenyl)-1H-1,2,3-triazol-4-yl]propyl}-5-(5-fluoro-2-methoxypyridin-3-yl)-7H-pyrrolo[2,3-d]pyrimidin-4-amine, enantiomer 1]
21.6 nM	199 nM	Nc1ncnc2c1c(-c1ccc(Cl)cc1)cn2Cc1cnc(-c2ccccc2F)[nH]1 [Example 263, 5-(4-Chlorophenyl)-7-{[2-(2-fluorophenyl)-1H-imidazol-5-yl]methyl}-7H-pyrrolo[2,3-d]pyrimidin-4-amine]
22.5 nM	6.66 nM	Cc1c(C(C)n2c(C#N)c(-c3cnc(C(F)(F)F)nc3)c3c(N)ncnc32)nnn1-c1ccccc1F (single isomer, unassigned) [Example 12, 4-amino-7-(1-(1-(2-fluorophenyl)-5-methyl-1H-1,2,3-triazol-4-yl)ethyl)-5-(2-(trifluoromethyl)pyrimidin-5-yl)-7H-pyrrolo[2,3-d]pyrimidine-6-carbonitrile]
95.3 nM	56.2 nM	COc1ncncc1-c1cn(C(c2cn(-c3ccccc3F)nn2)C2CC2)c2ncnc(N)c12 (stereo not shown) [Example 243, 7-{Cyclopropyl[1-(2-fluorophenyl)-1H-1,2,3-triazol-4-yl]methyl}-5-(4-methoxypyrimidin-5-yl)-7H-pyrrolo[2,3-d]pyrimidin-4-amine]
254 nM	112 nM	CC(c1cn(-c2ncccc2F)nn1)n1cc(-c2ccc(Cl)cc2)c2c(N)ncnc21 (stereo not shown) [Example 287, 5-(4-Chlorophenyl)-7-{1-[1-(3-fluoropyridin-2-yl)-1H-1,2,3-triazol-4-yl]ethyl}-7H-pyrrolo[2,3-d]pyrimidin-4-amine]
45.3 nM	28.9 nM	CCC(c1cn(-c2ccc(F)cc2)nn1)n1cc(-c2cncnc2OC)c2c(N)ncnc21 (single isomer, unassigned; enantiomer 1) [Example 149, (+) 7-{1-[1-(4-Fluorophenyl)-1H-1,2,3-triazol-4-yl]propyl}-5-(4-methoxypyrimidin-5-yl)-7H-pyrrolo[2,3-d]pyrimidin-4-amine, enantiomer 1]
478 nM	100 nM	COc1ncncc1-c1cn(Cc2cn(-c3ccccc3F)nn2)c2ncnc(N)c12 [Example 200, 7-{[1-(2-Fluorophenyl)-1H-1,2,3-triazol-4-yl]methyl}-5-(4-methoxypyrimidin-5-yl)-7H-pyrrolo[2,3-d]pyrimidin-4-amine]
430 nM	362 nM	CCC(c1cn(-c2cc(F)ccc2F)nn1)n1cc(-c2cncnc2OC)c2c(N)ncnc21 (single isomer, unassigned; enantiomer 2) [Example 308, (−) 7-{1-[1-(2,5-Difluorophenyl)-1H-1,2,3-triazol-4-yl]propyl}-5-(4-methoxypyrimidin-5-yl)-7H-pyrrolo[2,3-d]pyrimidin-4-amine, enantiomer 2]
39.8 nM	71.9 nM	Nc1ncnc2c1c(-c1ccc(OC(F)F)cc1)cn2Cc1cn(-c2ccccc2F)nn1 [Example 83, 5-[4-(Difluoromethoxy)phenyl]-7-{[1-(2-fluorophenyl)-1H-1,2,3-triazol-4-yl]methyl}-7H-pyrrolo[2,3-d]pyrimidin-4-amine]
152 nM	219 nM	COc1ccc(-c2c(C)n(Cc3cn(-c4ccc(F)cc4F)nn3)c3ncnc(N)c23)cn1 [Example 278, 7-{[1-(2,4-Difluorophenyl)-1H-1,2,3-triazol-4-yl]methyl}-5-(6-methoxypyridin-3-yl)-6-methyl-7H-pyrrolo[2,3-d]pyrimidin-4-amine]
12.4 nM	16.2 nM	CC(c1cn(-c2ccccc2F)nn1)n1cc(C2CCC2)c2c(N)ncnc21 (stereo not shown) [Example 247, 5-Cyclobutyl-7-{1-[1-(2-fluorophenyl)-1H-1,2,3-triazol-4-yl]ethyl}-7H-pyrrolo[2,3-d]pyrimidin-4-amine]
48.8 nM	214 nM	CCC(c1cn(-c2cccc(F)c2F)nn1)n1cc(-c2cc(F)cnc2OC)c2c(N)ncnc21 (single isomer, unassigned; enantiomer 2) [Example 170, 7-{1-[1-(2,3-Difluorophenyl)-1H-1,2,3-triazol-4-yl]propyl}-5-(5-fluoro-2-methoxypyridin-3-yl)-7H-pyrrolo[2,3-d]pyrimidin-4-amine, enantiomer 2]
39.6 nM	90.6 nM	CC(c1cn(-c2ncccc2F)nn1)n1ccc2c(Nc3ccc(OC4CC4)cc3)ncnc21 (stereo not shown) [Example 288, [4-(Cyclopropyloxy)phenyl]-7-{1-[1-(3-fluoropyridin-2-yl)-1H-1,2,3-triazol-4-yl]ethyl}-7H-pyrrolo[2,3-d]pyrimidin-4-amine]
2330 nM	2950 nM	CCC(c1cn(-c2ccc(F)cc2F)nn1)n1cc(-c2cnc(C(F)F)nc2)c2c(N)ncnc21 (single isomer, unassigned; enantiomer 2) [Example 168, 5-[2-(Difluoromethyl)pyrimidin-5-yl]-7-{1-[1-(2,4-difluorophenyl)-1H-1,2,3-triazol-4-yl]propyl}-7H-pyrrolo[2,3-d]pyrimidin-4-amine, enantiomer 2]
3500 nM	3690 nM	Nc1ncnc2c1c(-c1ccc(Cl)cc1)cn2Cc1ncc(-c2ccccc2F)[nH]1 [Example 285, 5-(4-Chlorophenyl)-7-{[5-(2-fluorophenyl)-1H-imidazol-2-yl]methyl}-7H-pyrrolo[2,3-d]pyrimidin-4-amine]
273 nM	235 nM	Nc1ncnc2c1c(-c1cccc3ncoc13)cn2Cc1cn(-c2ccccc2F)nn1 [Example 299, 5-(1,3-Benzoxazol-7-yl)-7-{[1-(2-fluorophenyl)-1H-1,2,3-triazol-4-yl]methyl}-7H-pyrrolo[2,3-d]pyrimidin-4-amine]
136 nM	533 nM	CC(c1cn(-c2ccccc2F)nn1)n1cc(-c2ccc(Cl)cc2)c2c(N)ncnc21 (single isomer, unassigned) [Example 111]
34.8 nM	45.5 nM	CSc1ccc(-c2cn(C(C)c3cn(-c4ccccc4F)nn3)c3ncnc(N)c23)c(F)c1 (stereo not shown) [Example 90, 5-[2-Fluoro-4-(methylsulfanyl)phenyl]-7-{1-[1-(2-fluorophenyl)-1H-1,2,3-triazol-4-yl]ethyl}-7H-pyrrolo[2,3-d]pyrimidin-4-amine]
13 nM	13.2 nM	CCC(c1cn(-c2cccc(F)c2F)nn1)n1cc(-c2cnc(C(F)(F)F)nc2)c2c(N)ncnc21 (single isomer, unassigned) [Example 187, 7-{1-[1-(2,3-Difluorophenyl)-1H-1,2,3-triazol-4-yl]propyl}-5-[2-(trifluoromethyl)pyrimidin-5-yl]-7H-pyrrolo[2,3-d]pyrimidin-4-amine]
75.8 nM	36.2 nM	COc1ncccc1-c1cn(C(C)c2cn(-c3ccccc3F)nn2)c2ncnc(N)c12 (single isomer, unassigned; enantiomer 2) [Example 114, (+) 7-{1-[1-(2-Fluorophenyl)-1H-1,2,3-triazol-4-yl]ethyl}-5-(2-methoxypyridin-3-yl)-7H-pyrrolo[2,3-d]pyrimidin-4-amine, enantiomer 2]
40.1 nM	57.5 nM	COc1ncccc1-c1cn(C(c2cn(-c3ccccc3F)nn2)C2CC2)c2ncnc(N)c12 (stereo not shown) [Example 297, 7-{Cyclopropyl[1-(2-fluorophenyl)-1H-1,2,3-triazol-4-yl]methyl}-5-(2-methoxypyridin-3-yl)-7H-pyrrolo[2,3-d]pyrimidin-4-amine]
28 nM	40.9 nM	CC(c1cn(-c2ccccc2F)nn1)n1cc(-c2ccc(Cl)c(F)c2)c2c(N)ncnc21 (stereo not shown) [Example 98, 5-(4-Chloro-3-fluorophenyl)-7-{1-[1-(2-fluorophenyl)-1H-1,2,3-triazol-4-yl]ethyl}-7H-pyrrolo[2,3-d]pyrimidin-4-amine]
5.48 nM	14.1 nM	CCC(c1cnn(-c2ccc(F)cc2F)c1)n1c(C#N)c(-c2cnc(C(F)(F)F)nc2)c2c(N)ncnc21 (single isomer, unassigned) [Example 20, 4-Amino-7-{1-[1-(2,4-difluorophenyl)-1H-pyrazol-4-yl]propyl}-5-[2-(trifluoromethyl)pyrimidin-5-yl]-7H-pyrrolo[2,3-d]pyrimidine-6-carbonitrile]

Source: US12612409B2, “Pyrrolopyrimidines as CFTR potentiators” (Cystic Fibrosis Foundation, priority 2016, dated 2026)
